# Assay results as given in ChEMBL document CHEMBL4145638 (J Med Chem, 2018).
# Key:
# [1] = target: Neuraminidase (Influenza A virus (A/Memphis/1/1971(H3N2)), UniProt P03471); test: Inhibition of Influenza A virus (A/Paris/908/97 (H3N2)) neuraminidase activity by fluorometric assay
# Neuraminidase [2] = target: T1, Neuraminidase (Influenza A virus, UniProt B4URF0); test: Inhibition of Influenza A virus (A/Paris/2590/2009(H1N1)) neuraminidase activity by fluorometric assay
# Neuraminidase [3] = target: T1, Neuraminidase; set-up: species or system Influenza A virus (A/California/04/2009(H1N1))
# Neuraminidase [4] = target: T1, Neuraminidase; set-up: species or system A/Babol/36/2005(H3N2)
# in vitro [5] = settings: chicken, chicken embryo fibroblasts
# in vitro [6] = settings: human, liver microsomes
# in vitro [7] = settings: human, liver microsomes; remark: listed apart in the source
# in vitro [8] = settings: human, liver
# in vitro [9] = settings: human, liver microsomes; remark: listed apart in the source
# [10] = Drug metabolism in human liver microsomes assessed as (3R,4R,5S)-4-Acetamido-5-((4(diethylamino)benzyl)amino)-3-(pentan-3-yloxy)cyclohex-1-ene-1-carboxylic acid formation in presence of NADPH by LC/MS/MS analysis; type: ADME, microsome
# in vitro [11] = settings: human, liver microsomes; remark: listed apart in the source
# Influenza A virus [12] = test: microbe, parasite or virus in culture; settings: MDCK, 48 h
# Influenza A virus [13] = test: microbe, parasite or virus in culture; settings: A/Puerto Rico/8/1934(H1N1), MDCK, 48 h
# Neuraminidase [14] = target: T1, Neuraminidase; set-up: species or system A/Anhui/1/2013(H7N9)
# in vitro [15] = settings: dog, MDCK cells
# Neuraminidase [16] = target: T1, Neuraminidase
# Neuraminidase [17] = target: T1, Neuraminidase; test: Inhibition of Influenza A virus (H1N1) neuraminidase activity
# [18] = target: Neuraminidase (Influenza A virus (A/Memphis/1/1971(H3N2)), UniProt P03471); test: Inhibition of Influenza A virus (H3N2) neuraminidase activity
# Mus musculus [19] = test: Acute toxicity in Kunming mouse assessed as change in body weight at 0.5 to 1 g/kg, ig; type: organism-based; settings: in vivo, po
# in vitro [20] = settings: human, plasma
# in vitro [21] = settings: human, plasma; remark: listed apart in the source
# Influenza A virus [22] = system: Influenza A virus
# [23] = human, plasma, 2 h, 100 µM
# [24] = Drug level in human liver microsomes treated with Ethyl(3R,4R,5S)-4-acetamido-5-((4-(diethylamino)benzyl)-amino)-3-(pentan-3-yloxy)cyclohex-1-ene-1-carboxylate assessed as compound formation in presence of NADPH by LC/MS/MS analysis; type: ADME, microsome
# in vitro [25] = settings: human, plasma; remark: listed apart in the source
# in vitro [26] = settings: human, plasma; remark: listed apart in the source
# Mus musculus [27] = test: Acute toxicity in Kunming mouse assessed as mortality at 0.5 to 1 g/kg, ig; type: organism-based; settings: in vivo, po
# Neuraminidase [28] = target: T1, Neuraminidase; test: Inhibition of Influenza A virus SN33 (H1N1) neuraminidase activity using fluorogenic substrate MU-NANA pre-incubated for 30 mins before fluorogenic substrate addition and measured after 1 hr by spectrofluorometry
# [29] = target: Neuraminidase (Influenza A virus (A/Memphis/1/1971(H3N2)), UniProt P03471); test: Inhibition of Influenza A virus Taiwan/3446/2002 (H3N2) neuraminidase activity using fluorogenic substrate MU-NANA pre-incubated for 30 mins before fluorogenic substrate addition and measured after 1 hr by spectrofluorometry
# in vitro [30] = settings: human, plasma; remark: listed apart in the source
# Sequence of Neuraminidase (Influenza A virus (A/Memphis/1/1971(H3N2)), UniProt P03471) (P03471 whole entry): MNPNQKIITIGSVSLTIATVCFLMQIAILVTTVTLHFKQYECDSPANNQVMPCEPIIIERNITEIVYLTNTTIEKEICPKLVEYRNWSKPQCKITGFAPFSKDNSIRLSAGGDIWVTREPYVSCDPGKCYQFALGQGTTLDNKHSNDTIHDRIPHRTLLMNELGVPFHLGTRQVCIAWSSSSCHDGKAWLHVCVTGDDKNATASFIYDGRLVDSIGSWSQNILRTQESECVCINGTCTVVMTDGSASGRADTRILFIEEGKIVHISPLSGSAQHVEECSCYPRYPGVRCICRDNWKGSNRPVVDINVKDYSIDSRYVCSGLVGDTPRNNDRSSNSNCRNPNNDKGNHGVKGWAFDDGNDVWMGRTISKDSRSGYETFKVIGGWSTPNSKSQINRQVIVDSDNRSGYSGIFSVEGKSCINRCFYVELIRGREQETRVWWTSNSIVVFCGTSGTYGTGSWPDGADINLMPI
# T1 sequence (B4URF0 whole entry): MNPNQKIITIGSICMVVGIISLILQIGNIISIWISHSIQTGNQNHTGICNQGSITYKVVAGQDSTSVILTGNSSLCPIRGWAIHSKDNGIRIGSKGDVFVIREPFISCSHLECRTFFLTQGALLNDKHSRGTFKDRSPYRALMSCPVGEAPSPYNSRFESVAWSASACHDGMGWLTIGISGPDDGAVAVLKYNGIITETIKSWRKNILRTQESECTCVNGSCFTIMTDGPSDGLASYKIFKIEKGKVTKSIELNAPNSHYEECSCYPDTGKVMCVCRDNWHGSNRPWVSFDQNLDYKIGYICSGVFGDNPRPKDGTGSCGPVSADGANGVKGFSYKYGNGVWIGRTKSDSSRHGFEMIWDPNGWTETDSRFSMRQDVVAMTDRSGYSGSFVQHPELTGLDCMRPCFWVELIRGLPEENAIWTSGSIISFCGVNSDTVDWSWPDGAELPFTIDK
Structure (SMILES),IC50 (Neuraminidase [3]),IC50 (Neuraminidase [4]),CC50 at 48 h (in vitro [5]),EC50 (Influenza A virus [12]),EC50 (Influenza A virus [13]),IC50 (Neuraminidase [14]),CC50 at 48 h (in vitro [15]),IC50 (Neuraminidase [16]),other results
CC(=O)N[C@H]1[C@H]([C@H](O)[C@H](O)CO)OC(C(=O)O)=C(C/C=C/c2ccc(C)cc2)[C@@H]1O,–,–,–,–,–,–,–,–,Ki [1]: 219000 nM; Ki (Neuraminidase [2]): 1700 nM
CCC(CC)O[C@@H]1C=C(C(=O)O)C[C@H](NCc2ccc(-c3cccs3)cc2)[C@H]1NC(C)=O,21.3 nM,354 nM,> 200000 nM,–,–,–,–,–,–
CCOC(=O)C1=C[C@@H](OC(CC)CC)[C@H](NC(C)=O)[C@@H](NCc2ccc(N(CC)CC)cc2)C1,–,–,–,–,–,–,–,–,remaining at 1 h (in vitro [6]): 87.1%; remaining at 1 h (in vitro [7]): 0.6%; CLint scaled at 10 min (in vitro [8]): 149 mL/min/kg; half-life at 10 min (in vitro [9]): 8.4 min; Drug metabolism [10]: Metabolite_Detected; microsomal CLint at 10 min (in vitro [11]): 165 µL/min/mg
CCC(CC)O[C@@H]1C=C(C(=O)O)C[C@H](NCc2ccc(N3CCSCC3)cc2)[C@H]1NC(C)=O,48.4 nM,62.6 nM,> 200000 nM,19000 nM,4400 nM,156 nM,> 250000 nM,74.2 nM,–
CCC(CC)O[C@@H]1C=C(C(=O)O)[C@H](n2cc(C(O)CC)nn2)[C@H](N)[C@H]1NC(C)=O (stereo partly drawn),–,–,–,–,–,–,–,–,Ki (Neuraminidase [17]): > 100 nM; Ki [18]: 20 nM
CCC(CC)O[C@@H]1C=C(C(=O)O)C[C@H](NCc2ccc(N(CC)CC)cc2)[C@H]1NC(C)=O,0.55 nM,1.05 nM,> 200000 nM,1700 nM,70 nM,1.79 nM,> 250000 nM,0.35 nM,"remaining at 1 h (in vitro [6]): 95.4%; remaining at 1 h (in vitro [7]): 82.7%; Activity (Mus musculus [19]): Non-Toxic; remaining at 1 h, 100 µM (in vitro [20]): 120%; CLint scaled at 10 min (in vitro [8]): < 8.6 mL/min/kg; remaining at 0.5 h, 100 µM (in vitro [21]): 120%; half-life at 10 min (in vitro [9]): > 145 min; EC50 (Influenza A virus [22]): 610 nM; Stability [23]: 120.7%; Drug metabolism [24]: Metabolite_Detected; remaining at 0 min, 100 µM (in vitro [25]): 100%; remaining at 10 min, 100 µM (in vitro [26]): 118%; microsomal CLint at 10 min (in vitro [11]): < 9.6 µL/min/mg; Activity (Mus musculus [27]): Non-Toxic"
CCC(CC)O[C@@H]1C=C(C(=O)O)C[C@H](NCc2ccc(N(CC)c3ccccc3)cc2)[C@H]1NC(C)=O,698 nM,474 nM,> 200000 nM,–,–,2590 nM,–,560 nM,–
CCC(CC)O[C@@H]1C=C(C(=O)O)C[C@H](NCc2ccc(N(C)c3ccccc3)cc2)[C@H]1NC(C)=O,29.8 nM,5.65 nM,> 200000 nM,25600 nM,1950 nM,11.4 nM,> 250000 nM,2.29 nM,–
CCC(CC)O[C@@H]1C=C(C(=O)O)C[C@H](NCc2ccc(N3CCCCC3)cc2)[C@H]1NC(C)=O,18.6 nM,17.1 nM,> 200000 nM,–,–,40.5 nM,–,20.7 nM,–
CCC(CC)O[C@@H]1C=C(C(=O)O)C[C@H](NCc2ccc(-n3cccn3)cc2)[C@H]1NC(C)=O,297 nM,869 nM,> 200000 nM,–,–,9120 nM,–,593 nM,–
CCC(CC)O[C@@H]1C=C(C(=O)O)C[C@H](NCc2ccc(NC(C)=O)cc2)[C@H]1NC(C)=O,–,–,> 200000 nM,–,–,–,–,–,–
CCC(CC)O[C@@H]1C=C(C(=O)O)[C@H](n2cc(C(O)CC)nn2)[C@H](NC(=N)N)[C@H]1NC(C)=O (stereo partly drawn),–,–,–,–,–,–,–,–,Ki (Neuraminidase [17]): > 100 nM; Ki [18]: 4 nM
CC(=O)N[C@H]1[C@H]([C@@H](O)[C@@H](O)CO)OC(C(=O)O)=C[C@@H]1NC(=N)NC(=O)CSc1cccc2ccccc12,–,–,–,–,–,–,–,–,IC50 (Neuraminidase [28]): 21 nM; IC50 [29]: 25 nM
CCC(CC)O[C@@H]1C=C(C(=O)O)C[C@H](NCc2ccc(N(C)C)cc2)[C@H]1NC(C)=O,4.09 nM,4.11 nM,> 200000 nM,–,–,8.41 nM,–,5.74 nM,–
CCC(CC)O[C@@H]1C=C(C(=O)O)C[C@H](NCc2ccc(-n3cccc3)cc2)[C@H]1NC(C)=O,59.3 nM,327 nM,> 200000 nM,29000 nM,690 nM,1820 nM,> 250000 nM,504 nM,–
CCC(CC)O[C@@H]1C=C(C(=O)O)C[C@H](NCc2ccc(Nc3ccccc3)cc2)[C@H]1NC(C)=O,66.7 nM,31.1 nM,> 200000 nM,–,–,94.2 nM,–,27.4 nM,–
CCC(CC)O[C@@H]1C=C(C(=O)O)C[C@H](NCCCNc2cccc(Cl)c2C)[C@H]1NC(C)=O,–,–,–,–,–,–,–,–,IC50 (Neuraminidase [17]): 0.59 nM; IC50 [18]: 31 nM
CCC(CC)O[C@@H]1C=C(C(=O)O)C[C@H](NCc2ccc(N3CCCC3)cc2)[C@H]1NC(C)=O,2.31 nM,1.81 nM,> 200000 nM,2350 nM,220 nM,6.51 nM,> 250000 nM,2.13 nM,–
O=C(O)Cc1ccccc1Nc1c(Cl)cccc1Cl [DICLOFENAC],–,–,–,–,–,–,–,–,CLint scaled at 10 min (in vitro [8]): 101 mL/min/kg; half-life at 10 min (in vitro [9]): 12.3 min; microsomal CLint at 10 min (in vitro [11]): 112 µL/min/mg
CCC(CC)O[C@@H]1C=C(C(=O)O)C[C@H](N)[C@H]1NC(C)=O [OSELTAMIVIR CARBOXYLATE],–,–,> 200000 nM,900 nM,40 nM,–,> 250000 nM,–,–
CC(C)[N+](C)(CCOC(=O)C1c2ccccc2Oc2ccccc21)C(C)C [PROPANTHELINE BROMIDE],–,–,–,–,–,–,–,–,"remaining at 1 h, 100 µM (in vitro [20]): 16.8%; remaining at 0.5 h, 100 µM (in vitro [21]): 44.6%; remaining at 2 h, 100 µM (in vitro [30]): 1.8%; remaining at 0 min, 100 µM (in vitro [25]): 100%; remaining at 10 min, 100 µM (in vitro [26]): 73.4%"
C[C@]12CC[C@H]3[C@@H](CCC4=CC(=O)CC[C@@]43C)[C@@H]1CC[C@@H]2O [TESTOSTERONE],–,–,–,–,–,–,–,–,CLint scaled at 10 min (in vitro [8]): 46.9 mL/min/kg; half-life at 10 min (in vitro [9]): 26.6 min; microsomal CLint at 10 min (in vitro [11]): 52.1 µL/min/mg
CC(=O)N[C@H]1[C@H]([C@H](O)[C@H](O)CO)OC(C(=O)O)=C[C@@H]1NC(=N)N [ZANAMIVIR],–,–,> 200000 nM,270 nM,50 nM,–,> 250000 nM,–,–
